Assay results published in patent publication US20100184704A1, “USE OF THE PEPTIDE GLY-ARG-GLY-ASP-ASN-PRO AS A THERAPEUTIC AGENT” (priority 2007, published 2010).
Where a SMILES comes first, the peptide text is derived from it.

System: drug-resistant Mycobacterium tuberculosis
Conditions: 5 micrograms per ml

With `N=C(N)NCCC[C@H](NC(=O)CN)C(=O)NCC(=O)N[C@@H](CC(=O)O)C(=O)N[C@@H](CC(N)=O)C(=O)N1CCC[C@H]1C(=O)O` [Gly-Arg-Gly-Asp-Asn-Pro, Gly-Arg-Gly-Asp-Asn-Pro-OH] (H-GRGDNP-OH) as the compound, how does the “% inhibition” value read?
Its value is 0.0%.
